Laboratory results from ChEMBL document CHEMBL3885881, “DrugMatrix”.

Species: Rattus norvegicus
Assay: DrugMatrix - Regimen: Daily Repeat
Assay type: toxicity, organism-based, Sprague-Dawley
Parameters: regimen Daily Repeat, gender Male, age 6-8 weeks
Details: in vivo, iv, vehicle 100 % SALINE; for ABSOLUTE BASOPHIL / ABSOLUTE EOSINOPHIL / ABSOLUTE LYMPHOCYTE / ABSOLUTE MONOCYTE / ABSOLUTE SEGMENTED NEUTROPHIL / BASOPHIL / EOSINOPHIL / ERYTHROCYTE COUNT / HEMATOCRIT / HEMOGLOBIN / LEUKOCYTE COUNT / LYMPHOCYTE / MEAN CORPUSCULAR HEMOGLOBIN / MEAN CORPUSCULAR HEMOGLOBIN CONCENTRATION / MEAN CORPUSCULAR VOLUME / MONOCYTE / NEUTROPHIL / NUCLEATED RED BLOOD CELLS / PLATELET COUNT: tissue Blood; for ALANINE AMINOTRANSFERASE / ALBUMIN / ALKALINE PHOSPHATASE / ASPARTATE AMINOTRANSFERASE / BLOOD UREA NITROGEN / CARBON DIOXIDE / CHLORIDE / CHOLESTEROL / CREATINE PHOSPHOKINASE / CREATININE / GLUCOSE / LACTATE DEHYDROGENASE / LIPASE / PHOSPHORUS / POTASSIUM / SODIUM / TOTAL BILIRUBIN / TOTAL PROTEIN / URIC ACID: tissue Plasma
[1] = 0.08 mg/kg, 120 h, dose level Low, time 5 day
[2] = 0.3 mg/kg, 72 h, dose level High, time 3 day
[3] = 0.3 mg/kg, 120 h, dose level High, time 5 day

CC[C@]1(O)C[C@@H]2CN(CCc3c([nH]c4ccccc34)[C@@](C(=O)OC)(c3cc4c(cc3OC)N(C)[C@H]3[C@@](O)(C(=O)OC)[C@H](OC(C)=O)[C@]5(CC)C=CCN6CC[C@]43[C@@H]65)C2)C1 [VINBLASTINE]
ABSOLUTE BASOPHIL [1]: 0 CELLS/uL
ABSOLUTE EOSINOPHIL [1]: 0 CELLS/uL
ABSOLUTE LYMPHOCYTE [1]: 7180.33 CELLS/uL
ABSOLUTE MONOCYTE [1]: 26.33 CELLS/uL
ABSOLUTE SEGMENTED NEUTROPHIL [1]: 293.33 CELLS/uL
BASOPHIL [1]: 0%
EOSINOPHIL [1]: 0%
ERYTHROCYTE COUNT [1]: 5.15 x10E6/uL
HEMATOCRIT [1]: 32.43%
HEMOGLOBIN [1]: 13 G/DL
LEUKOCYTE COUNT [1]: 7.5 x10E3/uL
LYMPHOCYTE [1]: 95.67%
MEAN CORPUSCULAR HEMOGLOBIN [1]: 25.27 pg
MEAN CORPUSCULAR HEMOGLOBIN CONCENTRATION [1]: 40.07 G/DL
MEAN CORPUSCULAR VOLUME [1]: 63.1 fL
MONOCYTE [1]: 0.33%
NEUTROPHIL [1]: 4%
NUCLEATED RED BLOOD CELLS [1]: 0 /100WBC
PLATELET COUNT [1]: 1437 x10E3/uL
ALANINE AMINOTRANSFERASE [1]: 44 u/L
ALBUMIN [1]: 3.93 G/DL
ALKALINE PHOSPHATASE [1]: 340.67 u/L
ASPARTATE AMINOTRANSFERASE [1]: 88.67 u/L
BLOOD UREA NITROGEN [1]: 16.67 mg/dL
CARBON DIOXIDE [1]: 28 mmol/L
CHLORIDE [1]: 101.33 MEQ/L
CHOLESTEROL [1]: 69.67 mg/dL
CREATINE PHOSPHOKINASE [1]: 599 u/L
CREATININE [1]: 0.2 mg/dL
GLUCOSE [1]: 212 mg/dL
LACTATE DEHYDROGENASE [1]: 334.67 u/L
LIPASE [1]: 10.67 u/L
PHOSPHORUS [1]: 13.3 mg/dL
POTASSIUM [1]: 5.71 MEQ/L
SODIUM [1]: 141.27 MEQ/L
TOTAL BILIRUBIN [1]: 0.2 mg/dL
TOTAL PROTEIN [1]: 5.83 G/DL
URIC ACID [1]: 1.77 mg/dL
ABSOLUTE BASOPHIL [2]: 0 CELLS/uL
ABSOLUTE EOSINOPHIL [2]: 0 CELLS/uL
ABSOLUTE LYMPHOCYTE [2]: 5650.33 CELLS/uL
ABSOLUTE MONOCYTE [2]: 34.67 CELLS/uL
ABSOLUTE SEGMENTED NEUTROPHIL [2]: 381.67 CELLS/uL
BASOPHIL [2]: 0%
EOSINOPHIL [2]: 0%
ERYTHROCYTE COUNT [2]: 4.96 x10E6/uL
HEMATOCRIT [2]: 31.5%
HEMOGLOBIN [2]: 12.67 G/DL
LEUKOCYTE COUNT [2]: 6.07 x10E3/uL
LYMPHOCYTE [2]: 93%
MEAN CORPUSCULAR HEMOGLOBIN [2]: 25.5 pg
MEAN CORPUSCULAR HEMOGLOBIN CONCENTRATION [2]: 40.23 G/DL
MEAN CORPUSCULAR VOLUME [2]: 63.4 fL
MONOCYTE [2]: 0.67%
NEUTROPHIL [2]: 6.33%
NUCLEATED RED BLOOD CELLS [2]: 0 /100WBC
PLATELET COUNT [2]: 588.33 x10E3/uL
ALANINE AMINOTRANSFERASE [2]: 129 u/L
ALBUMIN [2]: 4.03 G/DL
ALKALINE PHOSPHATASE [2]: 429 u/L
ASPARTATE AMINOTRANSFERASE [2]: 337.67 u/L
BLOOD UREA NITROGEN [2]: 15 mg/dL
CARBON DIOXIDE [2]: 31 mmol/L
CHLORIDE [2]: 102 MEQ/L
CHOLESTEROL [2]: 104 mg/dL
CREATINE PHOSPHOKINASE [2]: 645 u/L
CREATININE [2]: 0.16 mg/dL
GLUCOSE [2]: 167.33 mg/dL
LACTATE DEHYDROGENASE [2]: 246.33 u/L
LIPASE [2]: 10.67 u/L
PHOSPHORUS [2]: 11.6 mg/dL
POTASSIUM [2]: 5.31 MEQ/L
SODIUM [2]: 144.2 MEQ/L
TOTAL BILIRUBIN [2]: 0.47 mg/dL
TOTAL PROTEIN [2]: 5.83 G/DL
URIC ACID [2]: 1.07 mg/dL
ABSOLUTE BASOPHIL [3]: 0 CELLS/uL
ABSOLUTE EOSINOPHIL [3]: 11.33 CELLS/uL
ABSOLUTE LYMPHOCYTE [3]: 4520 CELLS/uL
ABSOLUTE MONOCYTE [3]: 22.67 CELLS/uL
ABSOLUTE SEGMENTED NEUTROPHIL [3]: 46 CELLS/uL
BASOPHIL [3]: 0%
EOSINOPHIL [3]: 0.33%
ERYTHROCYTE COUNT [3]: 5.7 x10E6/uL
HEMATOCRIT [3]: 34.73%
HEMOGLOBIN [3]: 13.5 G/DL
LEUKOCYTE COUNT [3]: 4.6 x10E3/uL
LYMPHOCYTE [3]: 98%
MEAN CORPUSCULAR HEMOGLOBIN [3]: 23.7 pg
MEAN CORPUSCULAR HEMOGLOBIN CONCENTRATION [3]: 38.87 G/DL
MEAN CORPUSCULAR VOLUME [3]: 61.03 fL
MONOCYTE [3]: 0.67%
NEUTROPHIL [3]: 1%
NUCLEATED RED BLOOD CELLS [3]: 0.33 /100WBC
PLATELET COUNT [3]: 95.67 x10E3/uL
ALANINE AMINOTRANSFERASE [3]: 423.33 u/L
ALBUMIN [3]: 3.6 G/DL
ALKALINE PHOSPHATASE [3]: 438.67 u/L
ASPARTATE AMINOTRANSFERASE [3]: 923 u/L
BLOOD UREA NITROGEN [3]: 14.67 mg/dL
CARBON DIOXIDE [3]: 33 mmol/L
CHLORIDE [3]: 96 MEQ/L
CHOLESTEROL [3]: 192.33 mg/dL
CREATINE PHOSPHOKINASE [3]: 622.67 u/L
CREATININE [3]: 0.1 mg/dL
GLUCOSE [3]: 121 mg/dL
LACTATE DEHYDROGENASE [3]: 415 u/L
LIPASE [3]: 10.67 u/L
PHOSPHORUS [3]: 10.6 mg/dL
POTASSIUM [3]: 5.16 MEQ/L
SODIUM [3]: 141.4 MEQ/L
TOTAL BILIRUBIN [3]: 5.67 mg/dL
TOTAL PROTEIN [3]: 5.83 G/DL
URIC ACID [3]: 0.7 mg/dL
